Earlier results, collected in US6372197B1, “Methods and compositions using norastemizole in combination with leukotriene inhibitors” (Sepracor Inc., priority 1998, dated 2002).
Read-outs that look alike come from different tables or passages of the source.

Columns and labels:
[1] = test system: LTD4-induced influx of eosinophils; conditions: in vivo
[2] = test system: LTD4-induced increases in cutaneous vascular permeability; conditions: in vivo
[3] = test system: contractile activity of three leukotrienes; conditions: in vitro, conducting airway smooth muscle from humans
[4] = test system: contractile activity of three leukotrienes; conditions: in vitro, conducting airway smooth muscle from laboratory animals
[5] = in some patients
[6] = test system: leukotriene (LTH4, LTC4, LTD4, and LTE4) formation; conditions: in vitro
[7] = 373 patients
[8] = test system: LTB4 formation; conditions: ex vivo, several species
[9] = test system: leukotriene-dependent smooth muscle contractions; conditions: in vitro, human airways
[10] = test system: leukotriene-dependent smooth muscle contractions; conditions: in vitro, guinea pig airways
[11] = in vivo

Question: Which “inhaled LTD4-induced influx of eosinophils into animal lungs” value [1] does the source give for COc1cc(C(=O)NS(=O)(=O)c2ccccc2C)ccc1Cc1cn(C)c2ccc(NC(=O)OC3CCCC3)cc12 [Zafirlukast, 4-(5-cyclopentyloxy-carbonylamino-1-methyl-indol-8-ylmethyl)-3-methoxy-N-o-tolylsulfonylbenzamide] here?
Answer: inhibited

Question: What about the “intradermal LTD4-induced increases in cutaneous vascular permeability” value [2] of the same molecule?
Answer: prevented

Question: What about the “antagonism of contractile activity of three leukotrienes” value [3] of the same molecule?
Answer: antagonized

Question: And the “antagonism of contractile activity of three leukotrienes” value [4]?
Answer: antagonized

Question: And the adverse effects reported [5]?
Answer: headache, infection, nausea, diarrhea, pain, asthenia, abdominal pain, dizziness, myalgia, fever, vomiting, SGPT elevation, and dyspepsia

Question: With CC(c1cc2ccccc2s1)N(O)C(N)=O (racemic) [Zileuton, (±)-1-(1-Benso[b]thien-2-ylethyl)-1-hydroxyurea] as the molecule, how does the “inhibition of leukotriene (LTH4, LTC4, LTD4, and LTE4) formation” value [6] read?
Answer: inhibit

Question: And the efficacy ([7]; 400 mg)?
Answer: failed to do so

Question: What about the efficacy ([7]; 600 mg four times daily) of the same molecule?
Answer: required to provide efficacy

Question: And the “inhibition of LTB4 formation” value [8]?
Answer: inhibitor

Question: What about the “inhibition of leukotriene-dependent smooth muscle contractions” value [9] of the same molecule?
Answer: inhibits

Question: And the adverse effects reported [5]?
Answer: headache, pain, asthenia, dyspepsia, nausea, and myalgia

Question: And the “inhibition of leukotriene-dependent smooth muscle contractions” value [10]?
Answer: inhibits

Question: Which results are given for COc1ccc(CCN2CCC(Nc3nc4ccccc4n3Cc3ccc(F)cc3)CC2)cc1 [Astemizole]?
Answer: absorption [11]: well absorbed; metabolism [11]: extensively metabolized
